Measured values taken from ChEMBL document CHEMBL3779859, “Synergistic activity of a short lipidated antimicrobial peptide (lipoAMP) and colistin or tobramycin against Pseudomonas aeruginosa from cystic fibrosis patients” (Medchemcomm, 2016).
In brackets after ≈: the same amount, converted by molar mass. Peptide text beside a SMILES is read from it. * marks the point of attachment. DEAC = CCN(CC)c1ccc2cc(C(=O)*)c(=O)oc2c1; Myristoyl = CCCCCCCCCCCCCC(=O)*; Lauroyl = CCCCCCCCCCCC(=O)*; Decanoyl = CCCCCCCCCC(=O)*; Octanoyl = CCCCCCCC(=O)*; Hexanoyl = CCCCCC(=O)*

Experiments:
Assay type in all cases: functional
[1] = system: Pseudomonas aeruginosa; assay: Antibacterial activity against Pseudomonas aeruginosa VW1633 clinical isolate after 16 to 20 hrs by microdilution assay
[2] = system: Pseudomonas aeruginosa; assay: Antibacterial activity against Pseudomonas aeruginosa KD491 clinical isolate after 16 to 20 hrs by microdilution assay
[3] = system: Pseudomonas aeruginosa; assay: Antibacterial activity against Pseudomonas aeruginosa LES431 clinical isolate after 16 to 20 hrs by microdilution assay

| SMILES | MIC [1] | MIC [2] | MIC [3] |
| --- | --- | --- | --- |
| CCCCCCCCCC(=O)N[C@@H](CCCNC(=N)N)C(=O)N[C@@H](Cc1c[nH]c2ccccc12)C(=O)N[C@@H](CCCNC(=N)N)C(=O)N[C@@H](Cc1c[nH]c2ccccc12)C(=O)N[C@@H](CCCNC(=N)N)C(=O)N[C@@H](Cc1c[nH]c2ccccc12)C(=O)N[C@@H](CCCCN)C(=O)O (Decanoyl-RWRWRWK-OH) | 64 µg/mL (≈ 48.2 µM) | 32 µg/mL (≈ 24.1 µM) | 32 µg/mL (≈ 24.1 µM) |
| CCN(CC)c1ccc2cc(C(=O)NCCCC[C@H](NC(=O)[C@H](Cc3c[nH]c4ccccc34)NC(=O)[C@H](CCCNC(=N)N)NC(=O)[C@H](Cc3c[nH]c4ccccc34)NC(=O)[C@H](CCCNC(=N)N)NC(=O)[C@H](Cc3c[nH]c4ccccc34)NC(=O)[C@@H](N)CCCNC(=N)N)C(=O)O)c(=O)oc2c1 (H-RWRWRWK(DEAC)-OH) | 64 µg/mL (≈ 45.2 µM) | 64 µg/mL (≈ 45.2 µM) | > 128 µg/mL |
| CCCCCC(=O)NCCCC[C@H](NC(=O)[C@H](Cc1c[nH]c2ccccc12)NC(=O)[C@H](CCCNC(=N)N)NC(=O)[C@H](Cc1c[nH]c2ccccc12)NC(=O)[C@H](CCCNC(=N)N)NC(=O)[C@H](Cc1c[nH]c2ccccc12)NC(=O)[C@@H](N)CCCNC(=N)N)C(=O)O (H-RWRWRWK(Hexanoyl)-OH) | 16 µg/mL (≈ 12.6 µM) | 32 µg/mL (≈ 25.2 µM) | > 128 µg/mL |
| CCCCCCCCCCCC(=O)NCCCC[C@H](NC(=O)[C@H](Cc1c[nH]c2ccccc12)NC(=O)[C@H](CCCNC(=N)N)NC(=O)[C@H](Cc1c[nH]c2ccccc12)NC(=O)[C@H](CCCNC(=N)N)NC(=O)[C@H](Cc1c[nH]c2ccccc12)NC(=O)[C@@H](N)CCCNC(=N)N)C(=O)O (H-RWRWRWK(Lauroyl)-OH) | 32 µg/mL (≈ 23.6 µM) | > 128 µg/mL | 64 µg/mL (≈ 47.2 µM) |
| CCCCCCCCCCCCCC(=O)NCCCC[C@H](NC(=O)[C@H](Cc1c[nH]c2ccccc12)NC(=O)[C@H](CCCNC(=N)N)NC(=O)[C@H](Cc1c[nH]c2ccccc12)NC(=O)[C@H](CCCNC(=N)N)NC(=O)[C@H](Cc1c[nH]c2ccccc12)NC(=O)[C@@H](N)CCCNC(=N)N)C(=O)O (H-RWRWRWK(Myristoyl)-OH) | > 128 µg/mL | > 128 µg/mL | 128 µg/mL (≈ 92.5 µM) |
| CCCCCCCC(=O)NCCCC[C@H](NC(=O)[C@H](Cc1c[nH]c2ccccc12)NC(=O)[C@H](CCCNC(=N)N)NC(=O)[C@H](Cc1c[nH]c2ccccc12)NC(=O)[C@H](CCCNC(=N)N)NC(=O)[C@H](Cc1c[nH]c2ccccc12)NC(=O)[C@@H](N)CCCNC(=N)N)C(=O)O (H-RWRWRWK(Octanoyl)-OH) | 16 µg/mL (≈ 12.3 µM) | 16 µg/mL (≈ 12.3 µM) | 128 µg/mL (≈ 98.5 µM) |
| CCCCCC(=O)N[C@@H](CCCNC(=N)N)C(=O)N[C@@H](Cc1c[nH]c2ccccc12)C(=O)N[C@@H](CCCNC(=N)N)C(=O)N[C@@H](Cc1c[nH]c2ccccc12)C(=O)N[C@@H](CCCNC(=N)N)C(=O)N[C@@H](Cc1c[nH]c2ccccc12)C(=O)N[C@@H](CCCCN)C(=O)O (Hexanoyl-RWRWRWK-OH) | 32 µg/mL (≈ 25.2 µM) | 64 µg/mL (≈ 50.3 µM) | > 128 µg/mL |
